Experimental data from patent publication US7605163B2, “Benzoyl-piperazine derivatives” (Hoffmann-La Roche Inc., priority 2003, dated 2009).

What follows are molecules tested against T1, mGlyT-1b (Mus musculus, UniProt P28571) (assay: Glycine Uptake Inhibition Assay (mGlyT-1b)). Conditions: [3H]-glycine uptake inhibition at GlyT-1, Flp-in-CHO cells transfected with mGlyT-1b cDNA.
T1 construct: host or cells: Flp-in-CHO cells
T1 sequence (P28571 1-651 isoform P28571-2): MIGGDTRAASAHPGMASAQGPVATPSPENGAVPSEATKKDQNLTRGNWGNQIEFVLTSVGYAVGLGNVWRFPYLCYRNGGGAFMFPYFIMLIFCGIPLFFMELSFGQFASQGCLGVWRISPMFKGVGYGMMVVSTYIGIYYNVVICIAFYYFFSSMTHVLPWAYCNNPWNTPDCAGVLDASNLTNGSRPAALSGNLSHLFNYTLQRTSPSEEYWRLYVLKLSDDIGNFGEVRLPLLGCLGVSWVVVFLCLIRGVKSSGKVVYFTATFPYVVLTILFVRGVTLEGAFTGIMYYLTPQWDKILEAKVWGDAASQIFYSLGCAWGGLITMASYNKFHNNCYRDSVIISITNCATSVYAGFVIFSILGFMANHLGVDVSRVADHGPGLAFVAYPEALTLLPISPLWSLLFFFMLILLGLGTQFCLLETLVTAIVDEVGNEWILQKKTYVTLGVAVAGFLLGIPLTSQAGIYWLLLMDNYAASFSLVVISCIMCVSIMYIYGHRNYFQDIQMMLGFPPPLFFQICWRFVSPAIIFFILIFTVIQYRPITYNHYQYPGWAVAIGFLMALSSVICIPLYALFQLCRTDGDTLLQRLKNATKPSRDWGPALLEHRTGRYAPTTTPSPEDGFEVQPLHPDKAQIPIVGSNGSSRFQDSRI
Assay type: cell-based
How it was run: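 Flp-in CHO cells stably expressing mouse GlyT-1b preincubated 20 min at 22 °C with inhibitor in pH 7.4 uptake buffer, then given 60 nM [3H]-glycine plus 25 μM unlabelled glycine. Cell radioactivity counted by scintillation; nonspecific uptake defined with 10 mM glycine; IC50 from concentration range.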

SMILES | IC50 [nM]
CC(C)Oc1ccc(S(C)(=O)=O)cc1C(=O)N1CCN(c2ccc(C=O)cc2F)CC1 [compound 461] | 46
CNS(=O)(=O)c1ccc(OCC(C)C)c(C(=O)N2CCN(c3ccc(C#N)c(F)c3)CC2)c1 [compound 475] | 40
CNS(=O)(=O)c1ccc(OC2CCCC2)c(C(=O)N2CCN(c3ccc(C#N)cc3)CC2)c1 [compound 491] | 37
CNS(=O)(=O)c1ccc(OCC2CCC2)c(C(=O)N2CCN(c3ccc(C#N)cc3)CC2)c1 [compound 494] | 30
CNS(=O)(=O)c1ccc(OC2CCCC2)c(C(=O)N2CCN(c3ccc(C#N)cc3F)CC2)c1 [compound 507] | 31
CNS(=O)(=O)c1ccc(OCC2CCC2)c(C(=O)N2CCN(c3ccc(C#N)cc3F)CC2)c1 [compound 510] | 15
CNS(=O)(=O)c1ccc(OCC(C)(C)C)c(C(=O)N2CCN(c3ccc(C(C)=O)cc3F)CC2)c1 [compound 515] | 40
CNS(=O)(=O)c1ccc(OC2CCCC2)c(C(=O)N2CCN(c3ccc(C(C)=O)cc3F)CC2)c1 [compound 517] | 35
CNS(=O)(=O)c1ccc(OCC2CC2)c(C(=O)N2CCN(c3ccc(C(C)=O)cc3F)CC2)c1 [compound 519] | 35
CNS(=O)(=O)c1ccc(OCC(C)(C)C)c(C(=O)N2CCN(c3ccc(C(F)(F)F)cc3)CC2)c1 [compound 525] | 21
CNS(=O)(=O)c1ccc(OC2CCC2)c(C(=O)N2CCN(c3ccc(C(F)(F)F)cc3)CC2)c1 [compound 528] | 15
CNS(=O)(=O)c1ccc(OCCC(F)(F)F)c(C(=O)N2CCN(c3ccc(C(F)(F)F)cc3)CC2)c1 [compound 531] | 28
CCS(=O)(=O)c1ccc(N2CCN(C(=O)c3cc(S(C)(=O)=O)ccc3OCC3CC3)CC2)c(F)c1 [compound 562] | 44
CCS(=O)(=O)c1ccc(N2CCN(C(=O)c3cc(S(C)(=O)=O)ccc3OC3CCCC3)CC2)c(F)c1 [compound 563] | 43
CCS(=O)(=O)c1ccc(N2CCN(C(=O)c3cc(S(C)(=O)=O)ccc3OC3CCCCC3)CC2)c(F)c1 [compound 564] | 41
CCS(=O)(=O)c1ccc(N2CCN(C(=O)c3cc(S(C)(=O)=O)ccc3OCC(C)C)CC2)c(F)c1 [compound 566] | 30
CC(C)Oc1ccc(S(C)(=O)=O)cc1C(=O)N1CCN(c2ccc(S(=O)(=O)C3CCC3)cc2F)CC1 [compound 570] | 46
CC(C)Oc1ccc(S(C)(=O)=O)cc1C(=O)N1CCN(c2ccc(S(=O)(=O)C3CCCC3)cc2F)CC1 [compound 571] | 50
CS(=O)(=O)c1ccc(OC2CCCCC2)c(C(=O)N2CCN(c3ccc(S(=O)(=O)C4CC4)cc3F)CC2)c1 [compound 574] | 34
CC(C)COc1ccc(S(C)(=O)=O)cc1C(=O)N1CCN(c2ccc(S(=O)(=O)C3CC3)cc2F)CC1 [compound 578] | 41
CC(C)Oc1ccc(S(C)(=O)=O)cc1C(=O)N1CCN(c2cc(F)c(S(=O)(=O)C3CC3)cc2F)CC1 [compound 595] | 49

The remaining molecules from weak to strong by IC50, led by results:

IC50 [nM] | SMILES
49 | CNS(=O)(=O)c1ccc(OCC(F)(F)F)c(C(=O)N2CCN(c3ccc(C#N)cc3F)CC2)c1 [compound 534]
47 | CC(C)(Oc1ccc(S(C)(=O)=O)cc1C(=O)N1CCN(c2ncc(C(F)(F)F)cc2F)CC1)C(F)(F)F [compound 637]
46 | CNS(=O)(=O)c1ccc(OC(C)C)c(C(=O)N2CCN(c3ccc(C#N)cc3F)CC2)c1 [compound 506]
45 | CNS(=O)(=O)c1ccc(OCC(C)C)c(C(=O)N2CCN(c3ccc(C(C)=O)cc3F)CC2)c1 [compound 514]
39 | CNS(=O)(=O)c1ccc(OCC(C)C)c(C(=O)N2CCN(c3ccc(C#N)cc3)CC2)c1 [compound 488]
39 | CS(=O)(=O)c1ccc(OC2CCC2)c(C(=O)N2CCN(c3ccc(S(=O)(=O)C4CC4)cc3F)CC2)c1 [compound 576]
38 | COCCS(=O)(=O)c1ccc(N2CCN(C(=O)c3cc(S(C)(=O)=O)ccc3OC(C)C)CC2)c(F)c1 [compound 561]
37 | CS(=O)(=O)c1ccc(OC2CCCC2)c(C(=O)N2CCN(c3ccc(S(=O)(=O)C4CC4)cc3F)CC2)c1 [compound 573]
35 | N#Cc1ccc(N2CCN(C(=O)c3cc(S(=O)(=O)C4CC4)ccc3OC3CCCC3)CC2)c(F)c1 [compound 546]
32 | CC(C)Oc1ccc(S(C)(=O)=O)cc1C(=O)N1CCN(c2ccc(S(=O)(=O)C3CCCCC3)cc2F)CC1 [compound 589]
30 | CNS(=O)(=O)c1ccc(OCC2CCC2)c(C(=O)N2CCN(c3ccc(C#N)c(F)c3)CC2)c1 [compound 481]
30 | CNS(=O)(=O)c1ccc(OCC2CC2)c(C(=O)N2CCN(c3ccc(C#N)cc3F)CC2)c1 [compound 509]
30 | CNS(=O)(=O)c1ccc(OCC(F)(F)F)c(C(=O)N2CCN(c3ccc(C(F)(F)F)cc3)CC2)c1 [compound 537]
25 | CNS(=O)(=O)c1ccc(OCC(C)C)c(C(=O)N2CCN(c3ccc(C#N)cc3F)CC2)c1 [compound 504]
24 | CNS(=O)(=O)c1ccc(OCC(C)(C)C)c(C(=O)N2CCN(c3ccc(C#N)cc3F)CC2)c1 [compound 505]
13 | CNS(=O)(=O)c1ccc(OCC2CC2)c(C(=O)N2CCN(c3ccc(C(F)(F)F)cc3)CC2)c1 [compound 529]
12 | CNS(=O)(=O)c1ccc(OCC(C)C)c(C(=O)N2CCN(c3ccc(C(F)(F)F)cc3)CC2)c1 [compound 524]
9 | CNS(=O)(=O)c1ccc(OC(C)C)c(C(=O)N2CCN(c3ccc(C(F)(F)F)cc3)CC2)c1 [compound 526]
6 | CNS(=O)(=O)c1ccc(OC2CCCC2)c(C(=O)N2CCN(c3ccc(C(F)(F)F)cc3)CC2)c1 [compound 527]
5.7 | CNS(=O)(=O)c1ccc(OCC2CCC2)c(C(=O)N2CCN(c3ccc(C(F)(F)F)cc3)CC2)c1 [compound 530]
